Like-named read-outs stand apart in the source and are kept apart here.
How the values were obtained:
CDK1/cyclin B = target: T1, CDK1/cyclin B (Homo sapiens, UniProt P06493); test: CDK1/cyclin B kinase inhibition assay (histone H1, [γ-33P]ATP); type: biochemical
T1 construct: made in house; host or cells: Sf9 insect cells (baculovirus co-infection)
Procedure: (§1) CDK1/cyclin B and CDK2/cyclin E kinases were produced in Sf9 insect cells coinfected with appropriate baculoviral constructs. The cells were harvested 70 h post infection, incubated in lysis buffer (50 mM Tris pH 7.4, 150 mM NaCl, 5 mM EDTA, 20 mM NaF, 1% Tween 20, 1 mM DTT, 0.1 mM PMSF, 0.5 μg/ml leupeptine, 1 μg/ml aprotonine) for 30 min on ice and the soluble fraction was recovered by centrifugation at 20.000 g for 10 min. The enzymes were purified on NiNTA column (Qiagen), stored at 4° C. and used within a week. To carry out the enzyme inhibition assays under linear conditions, the final point test system for kinase activity measurement was used. Kinase was added to reaction mixture in such a way as to obtain linear activity with respect to the concentration of enzyme and with respect to time. For determination of kinase inhibition the reaction mixture contained 1 mg/ml histone H1 (type III-S, Sigma) in the presence of 15 μM ATP, 0.05 μCi [γ-^33P]ATP and the tested compound in a final volume of 10 μl; all in reaction buffer (50 mM HEPES, 10 mM MgCl2, 5 mM EGTA, 10 mM 2-glycerolphosphate, 1 mM NaF, 1 mM DTT, pH 7.4). After 20 min incubation, the reactions were stopped by the addition of 5 μl of a 3% H3PO4, aliquots were spotted on P-81 phosphocellulose (Whatman, USA) that was subsequently washed 3× with 5% H3PO4 and finally air dried. The measurements of kinase inhibition employed digital image analyzer BAS-1800 (Fujifilm, Japan). Kinase activity was usually expressed as a percentage of maximum activity. […] For the purpose of kinetic analysis, the activity was expressed as arbitrary units (AU) of digital image analyzer signal.

CDK2/cyclin E = target: T2, CDK2/cyclin E (Homo sapiens, UniProt P24941); test: CDK2/cyclin E kinase inhibition assay (histone H1, [γ-33P]ATP); type: biochemical
T2 construct: made in house; host or cells: Sf9 insect cells (baculovirus co-infection)
Procedure: as §1

CDK7/cyclin H = CDK7/cyclin H (Homo sapiens, UniProt P50613); test: Kinase selectivity panel; type: biochemical; conditions: in the presence of 10 μM compound
c-Abl = c-Abl (Homo sapiens, UniProt P00519); test: Kinase selectivity panel; type: biochemical; conditions: in the presence of 10 μM compound
CHK1 = CHK1 (Homo sapiens, UniProt O14757); test: Kinase selectivity panel; type: biochemical; conditions: in the presence of 10 μM compound
CK2 = CK2 (Homo sapiens, UniProt P68400); test: Kinase selectivity panel; type: biochemical; conditions: in the presence of 10 μM compound
GSK3β = GSK3β (Homo sapiens, UniProt P49841); test: Kinase selectivity panel; type: biochemical; conditions: in the presence of 10 μM compound
MAPK1 = test: Kinase selectivity panel; type: biochemical, human; conditions: in the presence of 10 μM compound
p70S6K = p70S6K (Homo sapiens, UniProt P23443); test: Kinase selectivity panel; type: biochemical
PKBα = PKBα (Homo sapiens, UniProt P31749); test: Kinase selectivity panel; type: biochemical; conditions: in the presence of 10 μM compound
SAPK2α = SAPK2α (Homo sapiens, UniProt Q16539); test: Kinase selectivity panel; type: biochemical; conditions: in the presence of 10 μM compound
[1] = In vitro cytotoxicity, Calcein AM, 72 h; type: cell-based, human; conditions: human, at 100 μM
Procedure: Tested drugs were added to the cell cultures in six different concentration and kept at 37° C. and 5% CO2 for three days.
The cells, cultured in DMEM (supplemented with 10% fetal calf serum, 4 mM glutamine, 100 IU/ml penicillin, 100 μg/ml streptomycin) in a humidified CO2 incubator at 37° C., were redistributed into 96-well microtitre plates (10.000 cells per well). After 12 h preincubation, tested compounds in six-fold dilutions were added. Treatment of cells with the tested compounds (in the 1-100 μM range) lasted for 72 h.

K562 cell line = test: Cell cycle analysis by flow cytometry; type: cell-based, human
Procedure: Taxol (1 μM) treated and control cells were harvested and analyzed simultaneously.
The antiproliferative activity of 4-arylazo-3,5-diaminopyrazoles was subsequently verified by flow cytometry with subconfluent and asynchronously growing K562 cell line. […] The cell cycle block in G2/M was not dominant.
After a longer incubation period (48-72 h) the cells started to die, with the some morphological features typical for apoptosis. […] The induction of apoptosis was therefore verified by the detection of a poly(ADP-ribose)polymerase (PARP) cleavage fragment. PARP is specifically cleaved as a result of activation of upstream proapoptotic caspases into 89 kDa and 27 kDa peptides.

[2] = system: poly(ADP-ribose)polymerase (PARP) cleavage fragment; test: PARP cleavage by western blot (induction of apoptosis); type: cell-based, human; conditions: K562 cells; FIG. 4 legend: MCF7 cells, 72 h
Procedure: For direct immunoblotting, total cellular protein lysates were prepared by harvesting treated cells in Laemmli sample buffer. […] The probing with anti-PARP monoclonal antibody (clone C-2-10) diluted 1:1000 lasted for 2 h at 22° C. After washing three times in PBS-T, the membrane was incubated with a 1:1000 dilution of peroxidase conjugated rabbit antimouse immunoglobulin. After another three washes in PBS-T, peroxidase activity was detected by ECL chemiluminiscence reagents (Amersham) according to the manufacturer's instructions. After a longer incubation period (48-72 h) the cells started to die, with the some morphological features typical for apoptosis. […] The induction of apoptosis was therefore verified by the detection of a poly(ADP-ribose)polymerase (PARP) cleavage fragment. PARP is specifically cleaved as a result of activation of upstream proapoptotic caspases into 89 kDa and 27 kDa peptides.

PKA = PKA (Homo sapiens, UniProt P17612); conditions: in the presence of 10 μM compound
[3] = averaged from triplicates, 15 μM ATP
[4] = in the presence of 10 μM compound

Sequence of p70S6K (P23443 whole entry): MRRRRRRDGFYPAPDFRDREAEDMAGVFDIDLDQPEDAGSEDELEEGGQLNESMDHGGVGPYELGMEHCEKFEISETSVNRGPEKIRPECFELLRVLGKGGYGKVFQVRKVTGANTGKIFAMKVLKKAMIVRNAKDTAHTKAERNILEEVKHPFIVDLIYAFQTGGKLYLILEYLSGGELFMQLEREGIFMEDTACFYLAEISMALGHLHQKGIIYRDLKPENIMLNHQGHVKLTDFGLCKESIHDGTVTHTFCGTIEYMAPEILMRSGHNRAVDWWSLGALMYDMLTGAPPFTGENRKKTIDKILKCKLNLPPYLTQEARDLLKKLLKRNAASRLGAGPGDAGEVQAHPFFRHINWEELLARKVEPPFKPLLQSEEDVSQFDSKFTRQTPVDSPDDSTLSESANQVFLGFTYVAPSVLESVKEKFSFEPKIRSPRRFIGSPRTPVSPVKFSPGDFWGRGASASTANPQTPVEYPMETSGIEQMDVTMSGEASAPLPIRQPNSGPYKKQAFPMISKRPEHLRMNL
T1 sequence (P06493 whole entry): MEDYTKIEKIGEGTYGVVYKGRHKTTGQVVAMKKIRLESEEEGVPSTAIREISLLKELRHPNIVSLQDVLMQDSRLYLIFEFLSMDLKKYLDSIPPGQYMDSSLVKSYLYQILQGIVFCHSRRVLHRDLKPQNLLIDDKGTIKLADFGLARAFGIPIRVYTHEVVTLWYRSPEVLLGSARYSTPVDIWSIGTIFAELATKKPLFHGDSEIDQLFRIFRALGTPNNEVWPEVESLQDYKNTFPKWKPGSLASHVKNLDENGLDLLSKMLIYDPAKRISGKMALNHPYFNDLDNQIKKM
T1 sequence (P14635 whole entry partner): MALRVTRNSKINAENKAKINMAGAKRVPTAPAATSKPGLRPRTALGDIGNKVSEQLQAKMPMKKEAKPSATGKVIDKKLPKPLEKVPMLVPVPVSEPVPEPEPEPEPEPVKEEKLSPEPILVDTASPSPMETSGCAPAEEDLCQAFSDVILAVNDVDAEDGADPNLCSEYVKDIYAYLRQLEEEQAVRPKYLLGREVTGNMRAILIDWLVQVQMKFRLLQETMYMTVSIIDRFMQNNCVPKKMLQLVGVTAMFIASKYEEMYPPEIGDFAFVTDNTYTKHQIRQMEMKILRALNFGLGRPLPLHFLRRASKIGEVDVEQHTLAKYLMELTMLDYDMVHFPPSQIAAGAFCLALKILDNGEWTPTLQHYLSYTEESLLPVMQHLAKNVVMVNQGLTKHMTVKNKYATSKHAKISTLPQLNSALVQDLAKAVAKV
Sequence of PKBα (P31749 whole entry): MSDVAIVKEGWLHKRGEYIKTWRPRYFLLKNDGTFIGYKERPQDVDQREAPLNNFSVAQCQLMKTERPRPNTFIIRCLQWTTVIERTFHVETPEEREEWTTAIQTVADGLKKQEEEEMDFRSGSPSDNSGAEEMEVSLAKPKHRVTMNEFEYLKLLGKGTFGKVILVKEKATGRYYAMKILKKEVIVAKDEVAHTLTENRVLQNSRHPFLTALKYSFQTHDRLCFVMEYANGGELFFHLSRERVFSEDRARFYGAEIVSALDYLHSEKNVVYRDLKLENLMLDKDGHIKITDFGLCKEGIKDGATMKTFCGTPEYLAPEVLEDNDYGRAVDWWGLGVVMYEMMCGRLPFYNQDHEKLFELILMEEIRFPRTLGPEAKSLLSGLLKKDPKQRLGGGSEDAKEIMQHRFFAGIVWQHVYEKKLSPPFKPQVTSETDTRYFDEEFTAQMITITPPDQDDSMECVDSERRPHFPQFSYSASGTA
Sequence of c-Abl (P00519 whole entry): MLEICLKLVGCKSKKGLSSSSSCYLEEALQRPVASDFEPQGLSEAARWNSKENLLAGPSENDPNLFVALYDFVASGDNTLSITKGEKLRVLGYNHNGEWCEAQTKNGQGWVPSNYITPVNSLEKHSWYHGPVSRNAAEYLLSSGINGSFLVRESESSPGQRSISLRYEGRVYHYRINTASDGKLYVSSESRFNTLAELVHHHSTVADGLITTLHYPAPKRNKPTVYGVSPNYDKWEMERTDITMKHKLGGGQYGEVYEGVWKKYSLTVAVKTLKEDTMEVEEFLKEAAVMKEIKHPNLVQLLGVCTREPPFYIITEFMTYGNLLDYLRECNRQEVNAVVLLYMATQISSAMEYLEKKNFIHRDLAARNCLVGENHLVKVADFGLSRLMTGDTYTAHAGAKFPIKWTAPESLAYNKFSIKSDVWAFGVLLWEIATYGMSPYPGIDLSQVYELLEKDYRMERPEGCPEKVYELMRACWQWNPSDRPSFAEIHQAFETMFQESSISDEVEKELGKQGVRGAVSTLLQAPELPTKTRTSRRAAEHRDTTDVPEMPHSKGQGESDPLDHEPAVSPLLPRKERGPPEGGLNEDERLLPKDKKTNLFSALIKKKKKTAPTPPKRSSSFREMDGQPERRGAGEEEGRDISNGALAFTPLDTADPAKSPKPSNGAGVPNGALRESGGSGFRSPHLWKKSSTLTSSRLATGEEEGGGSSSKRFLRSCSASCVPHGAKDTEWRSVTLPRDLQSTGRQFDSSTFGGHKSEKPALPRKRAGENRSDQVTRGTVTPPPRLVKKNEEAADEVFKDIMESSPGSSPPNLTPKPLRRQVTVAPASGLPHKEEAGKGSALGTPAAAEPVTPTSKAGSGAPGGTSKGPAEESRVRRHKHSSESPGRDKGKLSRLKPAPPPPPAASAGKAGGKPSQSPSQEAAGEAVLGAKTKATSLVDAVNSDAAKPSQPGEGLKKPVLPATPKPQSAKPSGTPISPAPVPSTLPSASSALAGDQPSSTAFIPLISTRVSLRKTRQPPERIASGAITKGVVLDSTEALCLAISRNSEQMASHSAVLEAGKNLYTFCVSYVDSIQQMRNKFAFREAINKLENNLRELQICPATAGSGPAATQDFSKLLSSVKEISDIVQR
Sequence of CHK1 (O14757 whole entry): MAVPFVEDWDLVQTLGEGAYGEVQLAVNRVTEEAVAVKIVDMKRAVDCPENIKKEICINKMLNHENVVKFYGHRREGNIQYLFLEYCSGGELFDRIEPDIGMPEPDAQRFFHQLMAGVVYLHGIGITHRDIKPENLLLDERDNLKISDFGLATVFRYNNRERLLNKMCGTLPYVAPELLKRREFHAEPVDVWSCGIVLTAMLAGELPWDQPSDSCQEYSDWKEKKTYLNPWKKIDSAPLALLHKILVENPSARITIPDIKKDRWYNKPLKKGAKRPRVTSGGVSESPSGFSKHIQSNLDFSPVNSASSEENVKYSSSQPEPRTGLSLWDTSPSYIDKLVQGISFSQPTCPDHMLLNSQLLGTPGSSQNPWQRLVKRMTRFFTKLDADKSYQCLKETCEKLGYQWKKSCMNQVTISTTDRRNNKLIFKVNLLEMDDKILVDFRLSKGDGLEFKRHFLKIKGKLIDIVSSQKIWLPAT
Sequence of SAPK2α (Q16539 whole entry): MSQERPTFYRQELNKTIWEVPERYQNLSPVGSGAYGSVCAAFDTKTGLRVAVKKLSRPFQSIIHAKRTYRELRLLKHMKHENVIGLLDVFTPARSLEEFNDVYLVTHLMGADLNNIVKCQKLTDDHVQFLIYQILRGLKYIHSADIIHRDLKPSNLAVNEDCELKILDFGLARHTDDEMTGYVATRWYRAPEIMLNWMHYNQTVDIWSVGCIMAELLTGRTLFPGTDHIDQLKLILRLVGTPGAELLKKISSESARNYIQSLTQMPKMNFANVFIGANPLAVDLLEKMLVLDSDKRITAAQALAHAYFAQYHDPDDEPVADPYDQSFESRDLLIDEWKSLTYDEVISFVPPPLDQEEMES
Sequence of GSK3β (P49841 whole entry): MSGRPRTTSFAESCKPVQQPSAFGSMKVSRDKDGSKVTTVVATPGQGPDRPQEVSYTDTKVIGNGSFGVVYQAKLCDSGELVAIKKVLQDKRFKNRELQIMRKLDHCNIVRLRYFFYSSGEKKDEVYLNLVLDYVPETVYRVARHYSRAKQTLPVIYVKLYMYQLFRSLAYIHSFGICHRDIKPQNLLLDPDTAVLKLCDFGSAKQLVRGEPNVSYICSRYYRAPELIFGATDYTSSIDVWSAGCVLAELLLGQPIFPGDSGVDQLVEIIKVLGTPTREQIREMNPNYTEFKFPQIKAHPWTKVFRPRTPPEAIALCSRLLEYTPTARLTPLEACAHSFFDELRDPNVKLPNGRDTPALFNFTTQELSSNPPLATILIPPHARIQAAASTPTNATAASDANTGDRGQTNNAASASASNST
Sequence of CDK7/cyclin H (P50613 whole entry): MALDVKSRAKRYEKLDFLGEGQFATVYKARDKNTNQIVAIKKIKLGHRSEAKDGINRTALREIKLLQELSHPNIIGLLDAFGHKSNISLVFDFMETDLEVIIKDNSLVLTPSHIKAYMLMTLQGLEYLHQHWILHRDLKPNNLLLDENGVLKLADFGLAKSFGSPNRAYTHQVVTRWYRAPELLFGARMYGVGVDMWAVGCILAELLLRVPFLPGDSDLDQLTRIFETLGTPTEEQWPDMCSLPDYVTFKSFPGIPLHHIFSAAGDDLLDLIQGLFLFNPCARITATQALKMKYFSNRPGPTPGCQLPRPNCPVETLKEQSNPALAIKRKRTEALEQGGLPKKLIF
Sequence of CDK7/cyclin H (P51946 whole entry partner): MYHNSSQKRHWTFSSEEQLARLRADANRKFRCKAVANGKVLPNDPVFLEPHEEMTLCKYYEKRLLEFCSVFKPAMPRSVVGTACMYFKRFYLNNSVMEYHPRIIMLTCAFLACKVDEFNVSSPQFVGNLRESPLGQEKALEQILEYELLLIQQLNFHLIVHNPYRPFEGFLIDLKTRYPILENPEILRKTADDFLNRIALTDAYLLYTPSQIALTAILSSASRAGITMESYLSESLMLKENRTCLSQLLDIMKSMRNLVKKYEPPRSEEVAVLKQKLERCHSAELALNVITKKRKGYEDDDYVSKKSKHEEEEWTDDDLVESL

In the case of `Nc1n[nH]c(N)c1N=Nc1ccc(O)cc1` [Compound 12b, 3,5-diamino-4-(4-hydroxy)phenylazo-pyrazole], the IC50 (CDK1/cyclin B; [3]) is reported as 2.1 µM, the “% of kinase activity” value (CDK1/cyclin B; [4]) is reported as 19% and the IC50 (CDK2/cyclin E; [3]) is reported as 3.5 µM. The “% of kinase activity” value (CDK2/cyclin E; [4]) was 31%, the “% of kinase activity” value (CDK7/cyclin H) was 71% and the “% of kinase activity” value (c-Abl) was 84%. The “% of kinase activity” value (CHK1) was 89%, the “% of kinase activity” value (CK2) was 65% and the “% of kinase activity” value (GSK3β) was 81%. The “% of kinase activity” value (MAPK1) was 99%, the IC50 (p70S6K) was ~10 µM and the “% of kinase activity” value (p70S6K; [4]) was 51%. The “% of kinase activity” value (PKBα) was 105%, the “% of kinase activity” value (SAPK2α) was 82% and the viability at 72 h, 100 µM ([1]; G 361 cells (human malignant melanoma), 72 h, read-out: % of viable cells G361) was 8.3%. The viability at 72 h, 100 µM ([1]; HOS cells (human osteogenic sarcoma), read-out: % of viable cells HOS) was 22%, the viability at 72 h, 100 µM ([1]; K562 cells (human chronic myeloblastic leukemia), 72 h, read-out: % of viable cells K562) was 23% and the viability at 72 h, 100 µM ([1]; MCF7 cells (human breast adenocarcinoma), 72 h, read-out: % of viable cells MCF7) was 20%. The “cell death by western blotting and flow cytometry” value (K562 cell line; 72 h treatment) was “significant cell death”, the cell cycle distribution (K562 cell line; K562, 50 μM, after 12 h incubation) was “accumulation of cell population in G1” and the “sub-G1 peak / fragmented DNA” value (K562 cell line; K562, longer incubation period (48-72 h)) was “sub-G1 peak of cell fragments, containing fragmented DNA”. For the same compound, the “PARP cleavage fragment (western blot)” value [2] was “revealed a 89 kDa peptide” and the “% of kinase activity” value (PKA) was 67%.
